Results on five compounds are retold here after patent publication US4593097A, “Phenazine carboxylic acid derivatives and a process for production thereof” (Kyowa Hakko Kogyo Co., Ltd., priority 1983, dated 1986).

The structures appear in SMILES notation. Values after ≈ are worked out from the molar mass of the structure shown. Bounds are passed on as bounds.

The test system of data set [1] is Staphylococcus aureus ATCC 6538P. Put plainly: Antibacterial activity by agar dilution method (pH 7.0), Staphylococcus aureus ATCC 6538P. The data set is classed as cell-based. As to conditions: ATCC6538P, read-out: Minimum Inhibitory Concentration. From the text:
(§1) Antibacterial activities of DC-86-Y, -M, -R and -C against various bacteria determined by agar dilution method (pH 7.0) are shown in Table 2.

The subject of data set [2] is Bacillus subtilis No. 10707. Put plainly: Antibacterial activity by agar dilution method (pH 7.0), Bacillus subtilis No. 10707. The format is cell-based. The note with it: read-out: Minimum Inhibitory Concentration.
Text: as §1

In data set [3] the test system is Klebsiella pneumoniae ATCC 10031. Description: Antibacterial activity by agar dilution method (pH 7.0), Klebsiella pneumoniae ATCC 10031. As to conditions: ATCC10031, read-out: Minimum Inhibitory Concentration. The format is cell-based.
Text: as §1

A further data set concerns Escherichia coli ATCC 26. Put plainly: Antibacterial activity by agar dilution method (pH 7.0), Escherichia coli ATCC 26. The note with it: ATCC26, read-out: Minimum Inhibitory Concentration. The format is cell-based.
Text: as §1

Data set [4] deals with Shigella sonnei ATCC 9290. Description: Antibacterial activity by agar dilution method (pH 7.0), Shigella sonnei ATCC 9290. The format is cell-based. The note with it: ATCC9290, read-out: Minimum Inhibitory Concentration.
Text: as §1

In data set [5] the test system is Salmonella typhosa ATCC 9992. Description: Antibacterial activity by agar dilution method (pH 7.0), Salmonella typhosa ATCC 9992. As to conditions: Salmonella enterica, pH 7, read-out: Minimum Inhibitory Concentration. The format is cell-based.
Text: as §1

A short description of the next data set: in vivo. The note with it: mouse, ip.
In data set [6] the test system is Sarcoma 180 ascites tumor cells. Description: Anti-tumor activity against Sarcoma 180 in mice. The format is in vivo, ddy male mice. As to conditions: 24 h after transplantation, measured 7 days after transplantation. How it is done:
5×10^6 Sarcoma 180 ascites tumor cells were transplanted to the hypoderm of the armpit cavity of ddy male mice weighing about 20 g, one group being 6 mice. 24 hours after the transplantation, 0.2 ml of a phosphate buffer saline (PBS) solution of a test compound having various concentrations was intraperitoneally administered once. The composition of PBS is 0.8 g/dl NaCl, 0.02 g/dl KCl, […] Na2 HPO4 and 0.02 g/dl KH2 PO4 (pH 7.2). For comparison, 0.2 ml of PBS containing mitomycin C was intraperitoneally administered 24 hours after the transplantation of the tumor cells. Average tumor volume (mm^3) and T/C (T: average tumor volume of mice treated with the test compound, C: average tumor volume of mice treated with 0.2 ml of PBS intraperitoneally)were measured 7 days after the transplantation and the results shown in Table 3 were obtained.

In the case of `CC(OC(=O)CCl)c1cccc2nc3c(C(=O)O)cccc3nc12` (centres unmarked) [DC-86-C], the MIC in data set [1] was 0.2 µg/mL (≈ 0.58 µM); in data set [2], 0.01 µg/mL (≈ 0.029 µM); in data set [3], > 100 µg/mL; in the data set with Escherichia coli ATCC 26 it was > 100 µg/mL; in data set [4], 10 µg/mL (≈ 29 µM); in data set [5], 10 µg/mL (≈ 29 µM). For the same compound, the 50% lethal dose (LD50) in “in vivo” was 40 mg/kg. For the same compound, the “T/C (average tumor volume, treated/control)” value in data set [6] (12.5 mg/kg i.p. once) is 0.98; in data set [6] (25 mg/kg i.p. once), 0.72; in data set [6] (50 mg/kg i.p. once) it was “dead”.
For the compound `CC(OC(=O)CO)c1cccc2nc3c(C(=O)O)cccc3nc12` (centres unmarked) [DC-86-M], the MIC was 0.3 µg/mL (≈ 0.919 µM) in data set [1]; 0.1 µg/mL (≈ 0.306 µM) in data set [2]; 100 µg/mL (≈ 306 µM) in data set [3]; 100 µg/mL (≈ 306 µM) in the data set with Escherichia coli ATCC 26; 10 µg/mL (≈ 30.6 µM) in data set [4]; 10 µg/mL (≈ 30.6 µM) in data set [5]. The same compound yielded a 50% lethal dose (LD50) in “in vivo” of 20 mg/kg. The “T/C (average tumor volume, treated/control)” value in data set [6] (5 mg/kg i.p. once) amounted to 0.97; in data set [6] (10 mg/kg i.p. once) it was 0.82; in data set [6] (20 mg/kg i.p. once), 0.36.
In the case of `CC(OC(=O)COC(C)(C)C)c1cccc2nc3c(C(=O)O)cccc3nc12` (centres unmarked) [DC-86-R], the MIC in data set [1] is 3 µg/mL (≈ 7.84 µM); in data set [2] it was 0.7 µg/mL (≈ 1.83 µM); in data set [3], > 100 µg/mL; with Escherichia coli ATCC 26, > 100 µg/mL; in data set [4], > 100 µg/mL; in data set [5], > 100 µg/mL. The compound also gave a 50% lethal dose (LD50) in the data set “in vivo” of 250 mg/kg. The “T/C (average tumor volume, treated/control)” value in data set [6] (50 mg/kg i.p. once) is 1.06; in data set [6] (100 mg/kg i.p. once), 0.87; in data set [6] (200 mg/kg i.p. once) it was 0.86.
On to `CC(O)c1cccc2nc3c(C(=O)O)cccc3nc12` (centres unmarked) [DC-86-Y, metal not drawn], for which the MIC (in data set [1]; in data set [2]; in data set [3]; in the data set on Escherichia coli ATCC 26; in data set [4]; in data set [5]) was > 100 µg/mL each time. The 50% lethal dose (LD50) in the data set “in vivo” stood at 300 mg/kg.
In the case of `CO[C@@]12[C@H](COC(N)=O)C3=C(C(=O)C(C)=C(N)C3=O)N1C[C@@H]1N[C@@H]12` [Mitomycin C, mitomycin C, reference compound], the “T/C (average tumor volume, treated/control)” value in data set [6] (6 mg/kg i.p.) is 0.28.
